# According to ChEMBL document CHEMBL4630904, “Data for DCP probe BI 207127” (2021):
# Active and inactive are the calls of the source. No cut-off for these calls is given here.
# Columns and labels:
# [1] = target: RNA-directed RNA polymerase (Hepacivirus hominis, UniProt O39930); test: Enzymatic assay with HCV NS5B polymerase D21
# [2] = target: 5-hydroxytryptamine receptor 1B (Homo sapiens) (UniProt P28222); test: 5HT1B(H) Eurofins SafetyScreen44 (BI); conditions: filed as antagonist, Compound concentration 10.0 uM
# [3] = target: Cannabinoid receptor 1 (Homo sapiens) (UniProt P21554); test: CB1(HU)_AGON Eurofins SafetyScreen44 (BI); conditions: filed as agonist; Compound concentration 10.0 uM
# Cannabinoid receptor 1 (Homo sapiens), sequence (P21554 whole entry): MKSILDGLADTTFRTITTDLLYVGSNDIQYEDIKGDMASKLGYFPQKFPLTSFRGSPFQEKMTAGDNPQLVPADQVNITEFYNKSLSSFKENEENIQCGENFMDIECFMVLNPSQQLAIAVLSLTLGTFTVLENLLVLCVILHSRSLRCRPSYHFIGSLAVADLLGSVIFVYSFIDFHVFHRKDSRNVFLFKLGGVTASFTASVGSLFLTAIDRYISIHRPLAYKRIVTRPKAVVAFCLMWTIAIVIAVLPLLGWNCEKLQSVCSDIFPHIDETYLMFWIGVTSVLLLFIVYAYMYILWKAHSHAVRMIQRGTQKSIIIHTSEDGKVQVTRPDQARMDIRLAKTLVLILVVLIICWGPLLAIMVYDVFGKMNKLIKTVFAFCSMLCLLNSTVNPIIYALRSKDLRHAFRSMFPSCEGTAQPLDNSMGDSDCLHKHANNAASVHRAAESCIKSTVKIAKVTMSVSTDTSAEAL
# [4] = target: Prostaglandin G/H synthase 1 (Homo sapiens) (UniProt P23219); test: COX-1 Eurofins SafetyScreen44 (BI); conditions: Compound concentration 10.0 uM
# [5] = target: Prostaglandin G/H synthase 2 (Homo sapiens) (UniProt P35354); test: COX-2 Eurofins SafetyScreen44 (BI); conditions: Compound concentration 10.0 uM
# Prostaglandin G/H synthase 2 (Homo sapiens), sequence (P35354 whole entry): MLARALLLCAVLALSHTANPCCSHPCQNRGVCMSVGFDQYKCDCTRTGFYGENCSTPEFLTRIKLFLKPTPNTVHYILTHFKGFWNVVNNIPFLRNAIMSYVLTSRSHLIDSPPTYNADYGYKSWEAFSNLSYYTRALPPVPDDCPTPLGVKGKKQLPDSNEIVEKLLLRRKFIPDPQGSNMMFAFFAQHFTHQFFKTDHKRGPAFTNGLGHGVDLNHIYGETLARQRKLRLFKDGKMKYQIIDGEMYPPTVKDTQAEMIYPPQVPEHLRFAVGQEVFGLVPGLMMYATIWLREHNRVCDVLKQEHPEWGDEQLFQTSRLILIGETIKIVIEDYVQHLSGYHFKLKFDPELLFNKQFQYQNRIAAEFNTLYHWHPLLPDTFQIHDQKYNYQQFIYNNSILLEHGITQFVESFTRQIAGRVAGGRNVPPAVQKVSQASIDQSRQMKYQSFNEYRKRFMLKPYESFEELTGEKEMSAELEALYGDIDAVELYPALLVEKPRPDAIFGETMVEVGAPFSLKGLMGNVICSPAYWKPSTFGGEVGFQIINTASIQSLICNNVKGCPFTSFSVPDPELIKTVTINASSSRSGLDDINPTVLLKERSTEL
# [6] = target: Kappa-type opioid receptor (Homo sapiens) (UniProt P41145); test: KAPPA(KOP)_HU Eurofins SafetyScreen44 (BI); conditions: Compound concentration 10.0 uM
# [7] = target: 5-hydroxytryptamine receptor 1A (Homo sapiens) (UniProt P08908); test: 5HT1A/H Eurofins SafetyScreen44 (BI); conditions: Compound concentration 10.0 uM
# [8] = target: 5-hydroxytryptamine receptor 2A (Homo sapiens) (UniProt P28223); test: 5HT2AH_AGON Eurofins SafetyScreen44 (BI); conditions: filed as agonist, Compound concentration 10.0 uM
# [9] = target: 5-hydroxytryptamine receptor 2B (Homo sapiens) (UniProt P41595); test: 5HT2B/H AG Eurofins SafetyScreen44 (BI); conditions: filed as agonist, Compound concentration 10.0 uM
# [10] = target: 5-hydroxytryptamine receptor 3A (Homo sapiens) (UniProt P46098); test: 5HT3/H Eurofins SafetyScreen44 (BI); conditions: Compound concentration 10.0 uM
# [11] = target: Adenosine receptor A2a (Homo sapiens) (UniProt P29274); test: A2A/H Eurofins SafetyScreen44 (BI); conditions: filed as antagonist, Compound concentration 10.0 uM
# [12] = target: Angiotensin-converting enzyme (Homo sapiens) (UniProt P12821); test: ACE(HU_AMTCH400) Eurofins SafetyScreen44 (BI); conditions: Compound concentration 10.0 uM
# [13] = target: Alpha-1A adrenergic receptor (Homo sapiens) (UniProt P35348); test: ALPHA1AH_ANTAG Eurofins SafetyScreen44 (BI); conditions: filed as antagonist, Compound concentration 10.0 uM
# [14] = target: Alpha-2A adrenergic receptor (Homo sapiens) (UniProt P08913); test: ALPHA2A/HU Eurofins SafetyScreen44 (BI); conditions: Compound concentration 10.0 uM
# [15] = target: Androgen receptor (Homo sapiens) (UniProt P10275); test: ANDROGEN/H Eurofins SafetyScreen44 (BI); conditions: Compound concentration 10.0 uM
# [16] = target: Beta-1 adrenergic receptor (Homo sapiens) (UniProt P08588); test: BETA1/HUM Eurofins SafetyScreen44 (BI); conditions: Compound concentration 10.0 uM
# Beta-1 adrenergic receptor (Homo sapiens), sequence (P08588 whole entry, looked up): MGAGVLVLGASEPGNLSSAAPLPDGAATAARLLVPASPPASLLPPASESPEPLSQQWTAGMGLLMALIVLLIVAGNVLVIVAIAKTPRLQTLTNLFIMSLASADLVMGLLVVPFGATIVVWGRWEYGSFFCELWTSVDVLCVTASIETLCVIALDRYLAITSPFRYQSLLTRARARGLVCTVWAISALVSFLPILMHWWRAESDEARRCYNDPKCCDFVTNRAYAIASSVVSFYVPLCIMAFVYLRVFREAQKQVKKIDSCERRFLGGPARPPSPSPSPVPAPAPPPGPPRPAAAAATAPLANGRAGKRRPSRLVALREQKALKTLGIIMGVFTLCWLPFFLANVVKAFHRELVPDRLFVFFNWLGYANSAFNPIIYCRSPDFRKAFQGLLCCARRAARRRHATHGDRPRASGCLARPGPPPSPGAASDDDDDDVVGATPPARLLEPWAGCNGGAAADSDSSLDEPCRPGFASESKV
# [17] = target: Beta-2 adrenergic receptor (Homo sapiens) (UniProt P07550); test: BETA2/HUM Eurofins SafetyScreen44 (BI); conditions: filed as antagonist, Compound concentration 10.0 uM
# [18] = target: Gamma-aminobutyric acid receptor subunit alpha-1 (Rattus norvegicus) (UniProt P62813); test: BZD/CENTR/R Eurofins SafetyScreen44 (BI); conditions: Compound concentration 10.0 uM
# [19] = target: Voltage-dependent L-type calcium channel subunit alpha-1C (dihydropyridine site) (Rattus norvegicus, UniProt P22002); test: CA+/DHPSI/R Eurofins SafetyScreen44 (BI); set-up: mode of action inhibitor; conditions: rat brain, probe [3H](+)PN200-110, compound concentration 10 uM, read-out: % Ctrl
# [20] = target: Cannabinoid receptor 2 (Homo sapiens) (UniProt P34972); test: CB2/PERIPH/H Eurofins SafetyScreen44 (BI); conditions: Compound concentration 10.0 uM
# [21] = target: Cholecystokinin receptor type A (Homo sapiens) (UniProt P32238); test: CCKA/H Eurofins SafetyScreen44 (BI); conditions: Compound concentration 10.0 uM
# Cholecystokinin receptor type A (Homo sapiens), sequence (P32238 whole entry): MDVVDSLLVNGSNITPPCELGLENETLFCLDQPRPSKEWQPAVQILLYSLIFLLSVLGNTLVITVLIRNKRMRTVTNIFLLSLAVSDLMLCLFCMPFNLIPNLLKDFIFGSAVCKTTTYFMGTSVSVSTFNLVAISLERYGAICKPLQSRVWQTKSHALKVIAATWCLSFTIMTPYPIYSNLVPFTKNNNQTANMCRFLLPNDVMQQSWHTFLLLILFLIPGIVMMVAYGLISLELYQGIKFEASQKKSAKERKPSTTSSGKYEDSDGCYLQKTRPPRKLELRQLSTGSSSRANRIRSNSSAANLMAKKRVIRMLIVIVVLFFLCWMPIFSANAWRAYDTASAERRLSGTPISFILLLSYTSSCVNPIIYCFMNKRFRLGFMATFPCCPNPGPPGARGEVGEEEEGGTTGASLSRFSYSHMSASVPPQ
# [22] = target: D(1A) dopamine receptor (Homo sapiens) (UniProt P21728); test: D1/H Eurofins SafetyScreen44 (BI); conditions: filed as antagonist, Compound concentration 10.0 uM
# [23] = target: D(2) dopamine receptor (Homo sapiens) (UniProt P14416); test: D2SH_AGON Eurofins SafetyScreen44 (BI); conditions: filed as agonist, Compound concentration 10.0 uM
# D(2) dopamine receptor (Homo sapiens), sequence (P14416 whole entry): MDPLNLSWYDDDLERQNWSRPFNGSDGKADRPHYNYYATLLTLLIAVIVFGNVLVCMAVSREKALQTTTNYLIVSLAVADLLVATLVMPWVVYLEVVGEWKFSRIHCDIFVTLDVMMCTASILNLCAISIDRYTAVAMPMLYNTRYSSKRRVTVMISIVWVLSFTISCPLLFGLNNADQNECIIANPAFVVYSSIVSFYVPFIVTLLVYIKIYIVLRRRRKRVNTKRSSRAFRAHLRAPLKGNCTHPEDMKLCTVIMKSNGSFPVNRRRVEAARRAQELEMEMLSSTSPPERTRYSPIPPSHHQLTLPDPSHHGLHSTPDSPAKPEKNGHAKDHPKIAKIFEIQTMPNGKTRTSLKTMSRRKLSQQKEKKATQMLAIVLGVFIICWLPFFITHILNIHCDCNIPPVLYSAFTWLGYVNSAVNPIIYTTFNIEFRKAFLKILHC
# [24] = target: Sodium-dependent dopamine transporter (Homo sapiens) (UniProt Q01959); test: DATRANS/HUM Eurofins SafetyScreen44 (BI); conditions: Compound concentration 10.0 uM
# [25] = target: Delta-type opioid receptor (Homo sapiens) (UniProt P41143); test: DELTA2/H Eurofins SafetyScreen44 (BI); conditions: Compound concentration 10.0 uM
# [26] = target: Endothelin-1 receptor (Homo sapiens) (UniProt P25101); test: ETA/H Eurofins SafetyScreen44 (BI); conditions: Compound concentration 10.0 uM
# [27] = target: Glucocorticoid receptor (Homo sapiens) (UniProt P04150); test: GCORTICOID/H Eurofins SafetyScreen44 (BI); conditions: Compound concentration 10.0 uM
# [28] = target: Histamine H1 receptor (Homo sapiens) (UniProt P35367); test: H1/PYRIL/HS Eurofins SafetyScreen44 (BI); conditions: Compound concentration 10.0 uM
# [29] = target: Histamine H2 receptor (Homo sapiens) (UniProt P25021); test: H2/APT/HS Eurofins SafetyScreen44 (BI); conditions: filed as antagonist, Compound concentration 10.0 uM
# hERG (KCNH2) = hERG (KCNH2) (Homo sapiens, UniProt Q12809); test: HERG_DOFETILIDE Eurofins SafetyScreen44 (BI); set-up: mode of action inhibitor; conditions: probe [3H] Dofetilide, compound concentration 10 uM, read-out: % Ctrl
# hERG (KCNH2), sequence (Q12809 whole entry): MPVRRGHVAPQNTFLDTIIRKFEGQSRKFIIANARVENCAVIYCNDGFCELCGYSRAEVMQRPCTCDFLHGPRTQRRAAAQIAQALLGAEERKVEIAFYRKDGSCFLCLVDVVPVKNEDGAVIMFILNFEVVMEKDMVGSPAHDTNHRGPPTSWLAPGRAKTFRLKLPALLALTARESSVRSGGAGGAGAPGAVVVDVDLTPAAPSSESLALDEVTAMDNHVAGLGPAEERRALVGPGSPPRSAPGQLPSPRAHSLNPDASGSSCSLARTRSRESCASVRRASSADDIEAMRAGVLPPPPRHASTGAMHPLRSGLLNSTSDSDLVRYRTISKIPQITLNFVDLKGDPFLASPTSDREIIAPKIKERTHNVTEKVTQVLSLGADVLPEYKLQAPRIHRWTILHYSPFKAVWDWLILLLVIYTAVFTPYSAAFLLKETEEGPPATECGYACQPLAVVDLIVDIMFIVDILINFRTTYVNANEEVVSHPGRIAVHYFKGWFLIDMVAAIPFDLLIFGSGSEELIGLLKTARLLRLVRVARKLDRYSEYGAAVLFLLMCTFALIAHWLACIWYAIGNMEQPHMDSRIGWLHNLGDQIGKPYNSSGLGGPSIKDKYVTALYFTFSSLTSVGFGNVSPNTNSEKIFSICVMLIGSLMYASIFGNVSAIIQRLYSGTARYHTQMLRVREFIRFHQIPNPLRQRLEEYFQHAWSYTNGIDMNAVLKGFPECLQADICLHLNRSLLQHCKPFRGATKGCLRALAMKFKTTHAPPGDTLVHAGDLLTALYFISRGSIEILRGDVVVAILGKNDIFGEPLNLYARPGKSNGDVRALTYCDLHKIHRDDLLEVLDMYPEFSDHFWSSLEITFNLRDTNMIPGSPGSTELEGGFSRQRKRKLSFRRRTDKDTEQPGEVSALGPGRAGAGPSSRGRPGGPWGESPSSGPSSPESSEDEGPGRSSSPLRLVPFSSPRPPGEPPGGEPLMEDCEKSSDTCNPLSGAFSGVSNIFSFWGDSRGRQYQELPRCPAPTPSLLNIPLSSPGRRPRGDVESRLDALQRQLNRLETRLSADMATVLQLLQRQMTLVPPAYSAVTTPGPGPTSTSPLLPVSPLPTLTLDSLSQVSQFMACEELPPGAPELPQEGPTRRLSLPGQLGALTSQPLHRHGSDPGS
# [30] = target: Potassium voltage-gated channel subfamily V member 1 (Rattus norvegicus) (UniProt P97557); test: K+/VOLT/RA Eurofins SafetyScreen44 (BI); conditions: Compound concentration 10.0 uM
# [31] = target: Tyrosine-protein kinase Lck (Homo sapiens) (UniProt P06239); test: LCK_CE Eurofins SafetyScreen44 (BI); conditions: Compound concentration 10.0 uM
# [32] = target: Muscarinic acetylcholine receptor M1 (Homo sapiens) (UniProt P11229); test: M1/H Eurofins SafetyScreen44 (BI); conditions: Compound concentration 10.0 uM
# [33] = target: Muscarinic acetylcholine receptor M2 (Homo sapiens) (UniProt P08172); test: M2/H Eurofins SafetyScreen44 (BI); conditions: filed as antagonist, Compound concentration 10.0 uM
# [34] = target: Muscarinic acetylcholine receptor M3 (Homo sapiens) (UniProt P20309); test: M3/H Eurofins SafetyScreen44 (BI); conditions: Compound concentration 10.0 uM
# [35] = target: MAO-A (amine oxidase [flavin-containing] A) (Rattus norvegicus, UniProt P21396); test: MAO-A_ANTAG Eurofins SafetyScreen44 (BI); set-up: mode of action antagonist; scale not given: the % may be the effect or the level left; conditions: compound concentration 10 uM, read-out: % Ctrl
# [36] = target: Mu-type opioid receptor (Homo sapiens) (UniProt P35372); test: MU/H Eurofins SafetyScreen44 (BI); conditions: Compound concentration 10.0 uM
# [37] = target: Sodium channel regulatory subunit beta-1 (Rattus norvegicus) (UniProt Q00954); test: NA+/SITE2/R Eurofins SafetyScreen44 (BI); conditions: Compound concentration 10.0 uM
# Sodium channel regulatory subunit beta-1 (Rattus norvegicus), sequence (Q00954 whole entry): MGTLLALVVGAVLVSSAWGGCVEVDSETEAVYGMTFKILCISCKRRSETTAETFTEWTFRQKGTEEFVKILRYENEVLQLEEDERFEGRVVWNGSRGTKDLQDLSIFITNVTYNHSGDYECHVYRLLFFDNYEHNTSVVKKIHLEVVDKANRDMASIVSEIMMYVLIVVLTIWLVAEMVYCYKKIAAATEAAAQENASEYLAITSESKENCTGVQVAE
# [38] = target: Sodium-dependent noradrenaline transporter (Homo sapiens) (UniProt P23975); test: NEUP/H Eurofins SafetyScreen44 (BI); conditions: Compound concentration 10.0 uM
# Sodium-dependent noradrenaline transporter (Homo sapiens), sequence (P23975 whole entry): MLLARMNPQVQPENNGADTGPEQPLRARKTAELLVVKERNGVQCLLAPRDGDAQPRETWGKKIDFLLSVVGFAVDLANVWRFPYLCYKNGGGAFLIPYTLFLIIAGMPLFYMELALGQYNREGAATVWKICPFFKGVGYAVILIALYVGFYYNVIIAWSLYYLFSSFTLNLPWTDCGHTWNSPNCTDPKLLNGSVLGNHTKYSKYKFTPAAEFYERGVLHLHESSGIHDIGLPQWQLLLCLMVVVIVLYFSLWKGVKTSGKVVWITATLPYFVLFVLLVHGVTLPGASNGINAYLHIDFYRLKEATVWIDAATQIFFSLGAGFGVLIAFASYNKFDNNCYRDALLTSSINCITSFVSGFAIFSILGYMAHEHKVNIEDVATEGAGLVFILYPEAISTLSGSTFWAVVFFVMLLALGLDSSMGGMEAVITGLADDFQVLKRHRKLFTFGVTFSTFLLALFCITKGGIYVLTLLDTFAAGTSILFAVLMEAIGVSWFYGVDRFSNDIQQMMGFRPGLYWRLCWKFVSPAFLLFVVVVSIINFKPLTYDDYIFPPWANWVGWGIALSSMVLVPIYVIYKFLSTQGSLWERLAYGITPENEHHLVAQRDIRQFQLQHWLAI
# [39] = target: Glutamate receptor ionotropic, NMDA 2A (Rattus norvegicus) (UniProt Q00959); test: NMDA/R Eurofins SafetyScreen44 (BI); conditions: Compound concentration 10.0 uM
# [40] = target: Neuronal acetylcholine receptor; alpha4/beta2 (Homo sapiens) (UniProt P17787+P43681); test: N_NEURO_A4B2 Eurofins SafetyScreen44 (BI); format: protein-complex assay; conditions: filed as agonist, Compound concentration 10.0 uM
# [41] = target: cGMP-inhibited 3',5'-cyclic phosphodiesterase 3A (Homo sapiens) (UniProt Q14432); test: PDE3A Eurofins SafetyScreen44 (BI); conditions: Compound concentration 10.0 uM
# [42] = target: 3',5'-cyclic-AMP phosphodiesterase 4D (Homo sapiens) (UniProt Q08499); test: PDE4D2 Eurofins SafetyScreen44 (BI); conditions: Compound concentration 10.0 uM
# [43] = target: Sodium-dependent serotonin transporter (Homo sapiens) (UniProt P31645); test: SLC6A4/H Eurofins SafetyScreen44 (BI); conditions: filed as antagonist, Compound concentration 10.0 uM
# [44] = target: Vasopressin V1a receptor (Homo sapiens) (UniProt P37288); test: V1A/HUM Eurofins SafetyScreen44 (BI); conditions: Compound concentration 10.0 uM
# RNA-directed RNA polymerase, sequence (O39930 whole entry): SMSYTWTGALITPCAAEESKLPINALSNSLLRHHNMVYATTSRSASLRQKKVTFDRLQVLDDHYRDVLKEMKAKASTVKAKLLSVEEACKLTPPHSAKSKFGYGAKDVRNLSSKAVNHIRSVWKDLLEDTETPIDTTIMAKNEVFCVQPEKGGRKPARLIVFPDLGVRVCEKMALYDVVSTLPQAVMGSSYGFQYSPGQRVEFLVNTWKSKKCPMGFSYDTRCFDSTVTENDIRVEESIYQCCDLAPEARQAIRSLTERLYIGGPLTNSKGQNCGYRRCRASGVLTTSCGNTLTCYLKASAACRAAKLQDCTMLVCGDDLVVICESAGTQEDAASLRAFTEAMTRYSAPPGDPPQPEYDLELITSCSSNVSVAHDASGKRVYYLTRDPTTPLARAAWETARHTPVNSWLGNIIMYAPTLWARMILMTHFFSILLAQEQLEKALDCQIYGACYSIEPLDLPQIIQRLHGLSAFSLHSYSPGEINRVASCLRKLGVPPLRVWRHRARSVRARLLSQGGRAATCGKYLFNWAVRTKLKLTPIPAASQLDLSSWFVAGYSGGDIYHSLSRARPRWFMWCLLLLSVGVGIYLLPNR
smiles,measurement,setting,value
Cn1c(C2(NC(=O)c3ccc(NCC4CCCCC4)nc3)CCC2)nc2ccc(/C=C/C(=O)O)cc21 [BI 7656],IC50,[1],> 5 µM (not active)
Cn1c(C2(NC(=O)c3ccc4c(C5CCCC5)c(-c5ncc(Br)cn5)n(C)c4c3)CCC2)nc2ccc(/C=C/C(=O)O)cc21 [DELEOBUVIR],IC50,[1],0.019 µM (active)
same,residual activity,[2],97%
same,residual activity,[3],72%
same,residual activity,[4],73%
same,residual activity,[5],85%
same,residual activity,[6],59%
same,residual activity,[7],116%
same,residual activity,[8],67%
same,residual activity,[9],140%
same,residual activity,[10],105%
same,residual activity,[11],133%
same,residual activity,[12],109%
same,residual activity,[13],100%
same,residual activity,[14],93%
same,residual activity,[15],107%
same,residual activity,[16],96%
same,residual activity,[17],100%
same,residual activity,[18],148%
same,activity at 10 µM,[19],105% (not active)
same,residual activity,[20],67%
same,residual activity,[21],12%
same,residual activity,[22],67%
same,residual activity,[23],86%
same,residual activity,[24],66%
same,residual activity,[25],47%
same,residual activity,[26],107%
same,residual activity,[27],81%
same,residual activity,[28],81%
same,residual activity,[29],108%
same,activity at 10 µM,hERG (KCNH2),68% (not active)
same,residual activity,[30],107%
same,residual activity,[31],117%
same,residual activity,[32],107%
same,residual activity,[33],104%
same,residual activity,[34],101%
same,activity at 10 µM,[35],92% (not active)
same,residual activity,[36],83%
same,residual activity,[37],79%
same,residual activity,[38],76%
same,residual activity,[39],83%
same,residual activity,[40],111%
same,residual activity,[41],140%
same,residual activity,[42],130%
same,residual activity,[43],117%
same,residual activity,[44],97%
